Active and inactive are the calls of the source. No cut-off for these calls is given here.

Holding throughout (assay type): functional, cell-based
Assay [1] is described as follows: (§1) Cytotoxicity against human Hep G2 cells. The conditions noted are these: HepG2.
The test system of another assay is MCF7. Nature of the assay: Cytotoxicity against human MCF7 cells.
A further assay relates to HepG2. The description is as §1.

Take `CC(=O)O[C@@H]1C[C@@]23C[C@@]24CC[C@H](O[C@@H]2OC[C@@H](O)[C@H](O)[C@H]2O)C(C)(C)[C@@H]4CC[C@H]3[C@]2(C)C[C@@H]3OC(C(=O)C(C)C)=C[C@@H](C)[C@@H]3[C@@]12C` [ASIATICOSIDE A]: the IC50 – broadly, the concentration at which inhibition is half-maximal – is 9.9 µM in assay [1] and 9.78 µM in the assay with MCF7.
The corresponding values for `CC(=O)O[C@@H]1C[C@@]23C[C@@]24CC[C@H](O[C@@H]2OC[C@@H](O)[C@H](O)[C@H]2O)C(C)(C)[C@@H]4CC=C3[C@]2(C)C[C@@H]3OC(C(=O)C(C)C)=C[C@@H](C)[C@@H]3[C@@]12C` [ASIATICOSIDE B] are 9.74 µM and 8.32 µM.
For `C[C@@H]1C[C@]2(OCC[C@]3(C)O[C@H]23)O[C@H]2C[C@@]3(C)C4=CC[C@H]5C(C)(C)[C@@H](O[C@@H]6OC[C@@H](O)[C@H](O)[C@H]6O)CC[C@@]56C[C@@]46CC[C@]3(C)[C@@H]12`, the outcome with HepG2 and in the assay with MCF7 was inactive.

The values are drawn from ChEMBL document CHEMBL1158090, “Cytotoxic cycloartane triterpene saponins from Actaea asiatica” (J Nat Prod, 2006).
